Test results from US4581366A, “Aldose reductase inhibition by spiro indoline derivatives” (Imperial Chemical Industries PLC, priority 1983, dated 1986).

Legend:
[1] = system: aldose reductase; experiment: in vivo aldose reductase inhibition in streptozotocin-diabetic rats (residual sorbitol in sciatic nerve); parameters: species or system rat; conditions: dosed daily for 2-5 days, 2-4 hours after final dose
Procedure: Thus, rats are made diabetic (as evidenced by severe glucosuria being present) by dosing with streptozotocin. The animals are then dosed daily with the test compound for 2-5 days. The animals are then killed 2-4 hours after the final dose and the eye lenses and/or sciatic nerves are removed. After a standard work-up procedure the residual sorbitol levels in each tissue are determined by gas liquid chromatography after conversion to the polytrimethysilyl derivatives. Inhibition of aldose reductase in vivo is then assessed by comparing the residual sorbitol levels in tissues from the dosed diabetic group of rats with those of an undosed group of diabetic rats and an undosed, normal group of rats.
(§1) In the above in vivo test, an effective dose (ED) may be defined as the oral dose at which the residual sorbitol level in the sciatic nerve is reduced to a level similar to that in the sciatic nerve of normal, undosed rats. In this test the novel compound of formula I has an ED of approximately 1.76 mg/kg. as the racemic form and of approximately 0.62 mg/kg. as the dextrorotatory, optically active form.

[2] = biological target: T1, aldose reductase (Bos taurus, UniProt P16116); experiment: in vitro inhibition of partially purified aldose reductase from bovine lenses (reduction of glucose to sorbitol, spectrophotometric); format: biochemical; conditions: read-out: IC50 (concentration necessary to inhibit to the extent of 50% the enzyme's ability to reduce glucose to sorbitol)
T1 construct: partially purified aldose reductase is isolated in known manner from bovine lenses; from tissue; host or cells: bovine lens
Procedure: Thus, partially purified aldose reductase is isolated in known manner from bovine lenses. The percentage inhibition of this enzyme's ability in vitro to reduce aldoses to polyhydric alcohols, and particularly to reduce glucose to sorbitol, caused by a test compound is then determined using standard spectrophotometric methods.
as §1

| Compound | effective dose (ED): oral dose at which the residual sorbitol level in the sciatic nerve is reduced to a level similar to that of normal, undosed rats [1] | IC50 [2] |
| --- | --- | --- |
| O=C1NC(=O)C2(N1)C(=O)N(Cc1ccc(Br)cc1F)c1c(Cl)cccc12 (racemic) [compound of formula I, racemic form, (±)-1'-(4-bromo-2-fluorobenzyl)-7'-chloro-spiro[imidazolidine-4,3'-indoline]-2,2',5-trione] | approximately 1.76 mg/kg | ~24 nM |
| O=C1NC(=O)C2(N1)C(=O)N(Cc1ccc(Br)cc1F)c1c(Cl)cccc12 (single isomer, unassigned; (+)) [(+)-1'-(4-bromo-2-fluorobenzyl)-7'-chloro-spiro[imidazolidine-4,3'-indoline]-2,2',5-trione] | approximately 0.62 mg/kg | ~9.8 nM |
